# Source: US8476317B2, “N-alkylcarbonyl-amino acid ester compounds and their use for cough and pharyngitis” (priority 2011, dated 2013)
# Assays:
# ocular surface = experiment: Eye wipe test, duration of cooling on ocular surface; type: in vivo, human; details: eye wipes 1 mg/ml in 5%-95% v/v ethanol-distilled water
# Procedure: To further document the activities fo the test molecules, the results from an eye wipe test was included. Here the test substance is applied to the closed eyelids with a towelette at a concentration of 1 mg/ml in 5%-ethanol-95%-distilled water vol/vol and the duration of cooling on the ocular surface was recorded. […] It is likely that the mucous membranes that line the ocular surface and the pharynx have similar sensory mechanisms that are somewhat different from the philtrum skin which is keratinized.
# philtrum skin [1] = experiment: Cooling on facial (philtrum) skin, ointment; type: in vivo, human; details: for Philtrum Skin (min), duration of cooling: 5 mg/ml in Aquaphor ointment
# Excerpt: A reliable place for topical application is the skin above the upper lip (above the vermilion border of the lips), on the philtrum, lateral to the philtrum until the nasolabial folds, and on the lower nostrils (subnasale). This part of the face is known to be densely innervated with cold receptors, second only to the surfaces of the eyeball and anogenitalia. At this locus, tingling, cool and cold sensations in the skin may be experienced and rated for time of onset and intensity.
# The intervals for recording sensations are 5 to 10 minutes, until two successive zeroes are obtained. The results (shown in FIG. 1) are averaged values of 4 to 6 separate trials in the same individual. The data are plotted using SigmaPlot® (Systat Software, Point Richmond Calif.) and a smoothing function with a negative exponential was used for analysis and statistical fit of the results. Confirmatory trials of cooling action of the long-acting NACE compounds were obtained in 2 to 4 individuals but not quantified for some because of the large number of chemicals that were evaluated.
# (§1) The onset of drug action is taken as the time to reach 2 units of coolness intensity, and offset of drug action is the time when coolness intensity drops below 2, after previously surpassing 2 units. The duration of cooling action is defined as the offset time minus the onset time. […] The quality of the sensation is noted, for example, as pure refreshing coolness, or if the sensation is accompanied by irritation (stinging or burning). The quality of the sensation is not rated for intensity.
# For bioassay on the skin, approximately 30 mg was stirred and dissolved in 3 g of warm liquid Aquaphor® ointment to a yield a 40 mM (˜1% wt/vol) ointment. The exact amount was adjusted so that the molar equivalent was about 35 to 40 mM. After cooling, 40 to 70 mg of the solid ointment was placed on the tip of a plastic stick and applied to the skin above the upper lip, on the philtrum, and lateral to the philtrum, up to the nasolabial folds, of test subjects and the onset and duration of cooling sensations noted.
# The intervals for recording sensations were 5 to 10 minutes, until two successive zeroes were obtained. The results (shown in FIG. 1) are averaged values of 4 to 6 separate trials in the same individual. The data are plotted using SigmaPlot® (Systat Software, Point Richmond, Calif., USA) and a smoothing function with a negative exponential was used for analysis and statistical fit of the results.
# as §1, with “was” for “is”, “was also noted: such” for “is noted, for example,”
# In the results of FIG. 1, the test compounds were singly applied to the skin above the upper lips as a ˜1% wt/vol (10 mg/ml) ointment. Subsequently, for the results shown in Table 3, the test dose on the philtrum was reduced to a 0.5% wt/vol (5 mg/ml) ointment. The reason for choosing a lower dose was to increase the number of trials per individual and to have a reduced chance of substances accumulating in the skin.
# pharyngeal surface = experiment: Chili-pepper sauce cough challenge test; type: in vivo, human; parameters: key: If there is no attenuation of the challenge stimuli, the score is 0; if there is partial inhibition, the score is +; if there is complete attenuation of the cough signal, the score is ++; details: challenge 45 to 50 min after ODT containing 2 mg of test substance
# Excerpt: A number of cough challenge methods have been devised for evoking the cough reflex (Morice et al. Briti. J. Clin. Pharmacol. 52: 365-375, 2001). Usually, citric acid or capsaicin is delivered via the inhalation route to volunteers and the number of coughs counted. […] The chili pepper sauce used here is called Yank Sing® Chili Pepper Sauce (YS Gourmet Productions, Inc., PO Box 26189, San Francisco, Calif. 94126) and is a well-known condiment for use with dim sum (Chinese tea lunch). The sensations associated with the chili pepper sauce are located in the back of the mouth and are clearly recognized and associated with a desire to clear the throat. […] To test for anti-cough activity the ODT with the test substance is first administered onto the dorsal surface of the tongue and 45 to 50 min afterwards the chili-pepper sauce test is administered. If there is no attenuation of the challenge stimuli, the score is 0, if there is partial inhibition, the score is +, and if there is complete attenuation of the cough signal, the score is ++. In the presence of an ODT that results in a ++ score, the irritative signals are completely absent, yet the salty taste used in the soy sauce of the condiment can still be easily tasted. The test substances in the ODT that produced a ++ score were then identified and further tested for effectiveness in the treatment of cough.
# [2] = test system: dorsal surface of the tongue; details: average of 6 subjects, filter paper on tongue; Watson et al.; cited from earlier work
# oral cavity / oropharynx = experiment: Cooling in oral cavity after application on dorsal surface of tongue; type: in vivo, human; details: for sensory irritation in oral cavity: 2 to 5 mg on tongue
# Procedure: The subject is instructed to close and hold the substance in the mouth for at least 10 seconds and not to swallow. The description of sensations is then recorded at 5 to 10 minute intervals.
# The compounds of Formula 1 are white crystalline solids at room temperatures. These compounds were tested as the pure powder (>95% purity, by HPLC analysis), or mixed 1:1 with powdered or granulated sugar. The test substances were applied at 2 to 5 mg on the mid-point of the dorsal surface of the tongue using a metal spatula or a plastic applicator. After depositing the test substance on the tongue, the subject was instructed to keep the mouth closed and allow the fluids of the mouth to inter-mix with the test substance and to distribute it to the back of the mouth (oropharynx). The presence and duration of subjective sensations from the mouth was then recorded.
# philtrum skin [3] = details: ˜10 mg/ml on the skin; as shown in U.S. 20080227857; cited from earlier work
# cough = type: in vivo, human
# Procedure: In 20 trials, 10 trials per subject, two mg of 95%+ pure powder of a D-Ala ethyl compound (No. 2 in Table 1, (R)-2-[((1R,2S,5R)-2-isopropyl-5-methyl-cyclohexanecarbonyl)-amino]-propionic acid ethyl ester)) of Formula (1) was placed on the mid-portion of the tongue of these two subjects. Both subjects reported relief from the desire to cough within 1 minute after application. Sensations of robust coolness in the back of the throat was noted and lasted for about 30 minutes. Applications of similar amounts of powdered sugar were not effective. The placebo could be clearly distinguished from the active compound because of the absence of cooling sensations.
# A person with a documented 31-year history of asthma attacks volunteered to test one of the compounds falling within Formula (1). They were extremely sensitive to agents such as tobacco smoke, dust, pollen, odors, down/woolen materials, house cleansing products, pets, and sudden change of air temperature, and reacted with violent coughing, mucus secretions, wheezing, choking, and shortness of breath. At the time of this trial, they were taking these medications for their condition: theophylline, Allegra®, Advair®, Intal®, and Singulair®. In 5 trials, during a coughing spree, they placed one to two mg of 95%+ pure powder of a D-Ala ethyl ester (No. 2 in Table 1, ((R)-2-[((1R,2S,5R)-2-isopropyl-5-methyl-cyclohexanecarbonyl)-amino]-propionic acid ethyl ester))) of Formula (1) on the mid-portion of their tongue. They reported a soothing and cool sensation with a slight taste similar to Eucalyptus oil in their mouth and throat. Coughing stopped after 3 to 5 minutes and breathing was normal. […] In three trials when the compound was applied at night, they slept through the night without being awakened by cough. Their spouse remarked that, in over 30 years of marriage, this was the first time that they had seen an effective medication for their cough. They noted that the irritative signals of cough were absent in the presence of the applied chemical, but they still sensed a mechanical build up of secretions in their airways and could voluntarily cough up such secretions if necessary. They continue to use the test compound for management of their asthma, with the knowledge and consent of their physician.
# A person had adult-onset asthma for 20 years. Triggers for attacks were tobacco smoke, dust, and changes in air temperature. They used Foradil® (formoterol fumarate) and Asmanex® (mometasone fuorate) twice a day to control their asthma, and monitored their pulmonary function with a portable device for measuring peak expiratory flow. They had daily episodes of both productive and non-productive cough. In 5 trials, when they felt throat irritation and a desire to cough, placement of 1 to 3 mg of (R)-2-[((1R,2S,5R)-2-isopropyl-5-methyl-cyclohexanecarbonyl)-amino]-propionic acid ethyl ester) (No. 2 in Table 1) provided rapid relief and was described as soothing and removed “tightness” in the chest. Peak expiratory flow improved from 320 Umin to 370 Umin. […] The subjective response to the long-acting NACE compound was definitely favourable. The subject remarked that the best time to use the NACE compuound was after inhaling the crystalline Foradil® because this inhaled drug irritated their throat.
# ODT containing 2.0 to 2.5 mg of D-Aa Me Ester, D-Ala Et Ester, or D-Ala iPr Ester (identified chemically in Table 1 as No. 1, No. 2, and No. 3, respectively) were prepared using mannitol/maltitol as the excipient and stored in tic-tac boxes each containing 10 tablets. Over a course of two years, 14 adult males with cough tested these tablets. The causes of coughing were colds/flu, allergies, pharyngitis, excessive smoking, and two cases of gastroesophageal reflux. These individuals all had advanced degrees (M.D. or Ph.D.) and were motivated to try the tablets by scientific curiosity or because of financial interests in drug development, or, in several cases, by the annoyance caused by the cough. […]
Structure (SMILES),"Eyelids/Ocular Surface (min), duration of cooling (ocular surface) [min]","Philtrum Skin (min), duration of cooling (philtrum skin [1]) [min]",Chili-Pepper Sauce Test (pharyngeal surface),other results
CCCOC(=O)C(C)NC(=O)[C@@H]1C[C@H](C)CC[C@H]1C(C)C (stereo partly drawn) [D-Ala-OnPr],65,108,+,
CCCOC(=O)CNC(=O)[C@@H]1C[C@H](C)CC[C@H]1C(C)C [Gly-OnPr],54,42,0,
CCCCOC(=O)CNC(=O)[C@@H]1C[C@H](C)CC[C@H]1C(C)C [Gly-OnBu],35,38,0,
"CC1CCC(C(C)C)C(O)C1 (single isomer, unassigned; (-)) [(−)-menthol, reference compound]",,,,"Threshold, μg (cooling on tongue) [2]: 0.25 µg; duration of cooling action of ODT (oral cavity / oropharynx; ODT containing 5 to 10 mg): less than 10 minutes; Cooling on tongue (oral cavity / oropharynx; Table 2 summary): yes; Acts for >1 hour at 40 mM (philtrum skin [1]; 40 mM ointment on skin): no; ""perfect"" cooling experience (philtrum skin [1]; Table 2 summary): no; Cooling on skin of face (philtrum skin [1]; Table 2 summary): yes; Eye Irritancy (philtrum skin [1]; Table 2 summary): yes"
CNC(=O)C(C)(C(C)C)C(C)C [WS-23],,,,duration / onset of action on the skin (philtrum skin [3]): short duration of action (less than 1 hour) at ˜10 mg/ml on the skin or slow onset (more than 5 minutes); sensory irritation in oral cavity (oral cavity / oropharynx): some sensory irritation
CCOC(=O)C(C)NC(=O)[C@@H]1C[C@H](C)CC[C@H]1C(C)C (stereo partly drawn) [L-Ala-OnPr],10,22,0,
CCCCOC(=O)C(C)NC(=O)[C@@H]1C[C@H](C)CC[C@H]1C(C)C (stereo partly drawn) [D-Ala-OnBu],40,80,0,
"CC(C)OC(=O)[C@@H](C)NC(=O)[C@@H]1C[C@H](C)CC[C@H]1C(C)C [D-Ala-OiPr, (R)-2-[((1R,2S,5R)-2-isopropyl-5-methyl-cyclohexanecarbonyl)-amino]-propionic acid isopropyl ester]",360,34,++,"cooling action of ODT on the pharyngeal surface (cough; Study 6, ODT): robust cooling action; effectiveness in reducing cough (cough; Study 6, ODT 2.0 to 2.5 mg, 14 adult males with cough): 100%; skin or eye irritancy (philtrum skin [1]; in vivo): without skin or eye irritancy"
COc1ccc(NC(=O)[C@@H]2C[C@H](C)CC[C@H]2C(C)C)cc1 [WS-12],,,,duration / onset of action on the skin (philtrum skin [3]): short duration of action (less than 1 hour) at ˜10 mg/ml on the skin or slow onset (more than 5 minutes)
CCOC(=O)C(C)NC(=O)[C@@H]1C[C@H](C)CC[C@H]1C(C)C (stereo partly drawn) [L-Ala-OiPr],15,27,0,
CCOC(=O)C(C)NC(=O)[C@@H]1C[C@H](C)CC[C@H]1C(C)C (stereo partly drawn) [L-Ala-OnBu],0,0,0,
CCNC(=O)C1CC(C)CCC1C(C)C (stereo not drawn) [WS-3],,,,duration / onset of action on the skin (philtrum skin [3]): short duration of action (less than 1 hour) at ˜10 mg/ml on the skin or slow onset (more than 5 minutes); sensory irritation in oral cavity (oral cavity / oropharynx): some sensory irritation
